Read-outs that look alike come from different tables or passages of the source.
Assays:
[1] = compared with “natural” SA
[2] = system: erythroid cells isolated from the bone marrow of gamma-irradiated laboratory mice males; assay: Radioprotective properties (micronucleus test after gamma irradiation); conditions: for radioprotective effect, conclusion in words: gamma rays 1.3 Gy, 20 mg/kg body wt., 48 h, 20 mg/kg; for Number of micronuclei per 2000 cells (radioprotective properties): mice irradiated with gamma rays 1.3 Gy, then fed 48 h succinic acid 20 mg/kg body wt., critical value 16±2
[3] = system: patients with cardiac insufficiency; conditions: for patients of functional class I, day 30 / patients of functional class II, day 30 / patients of functional class III, day 30 / patients of functional class IV, day 30 / patients of functional class I, day 60 / patients of functional class II, day 60 / patients of functional class III, day 60 / patients of functional class IV, day 60 / patients of functional class I, day 90 / patients of functional class II, day 90 / patients of functional class III, day 90 / patients of functional class IV, day 90: 100 mg twice per day with standard therapy; for patients of functional class I, day 30 / patients of functional class II, day 30 / patients of functional class III, day 30 / patients of functional class IV, day 30: after 30 days; for patients of functional class I, day 60 / patients of functional class II, day 60 / patients of functional class III, day 60 / patients of functional class IV, day 60: after 60 days; for patients of functional class I, day 90 / patients of functional class II, day 90 / patients of functional class III, day 90 / patients of functional class IV, day 90: after 90 days; for cardiotonic properties / dynamics of functional class, conclusion in words / patients of functional class I, day 0 / patients of functional class II, day 0 / patients of functional class III, day 0 / patients of functional class IV, day 0: 100 mg twice per day, 3 months; for patients of functional class I, day 0 / patients of functional class II, day 0 / patients of functional class III, day 0 / patients of functional class IV, day 0: with standard therapy, before treatment
Method: The test for cardiotonic activity of product samples was performed by measuring the dynamics of alteration of the functional class of cardiac failure. The functional class can be determined quite accurately by analyzing the everyday life activities according to a specific activity scale. The authors of this technique suppose that the criteria developed by NYHA (New York Heart Association) cannot provide accurate determination of functional class, since widely used terms, such as “everyday physical activity”, “sub-everyday activity” are not specific. On the basis of multiple tests, in which patients exercised on a treadmill, the authors calculated a scale of metabolic expenses for each kind of life activity (see Goldman L., Hashimoto B., Cook F. et al., Comparative reproducibility and validity of systems for assessing cardiovascular functional class: advantages of a new specific activity scale (1981) Circulation 64 (6):1227-34). This inquiry is designed to be used by medical personnel, interviewing a patient. After calculating the sum of possible energy expenses, the functional class of the patient is determined according to the summary criteria of the specific activity scale (Table 6).
In the tests, the patient groups were formed so that the people of the same functional class were equally distributed among different groups. Severe patients (of IV functional class; those having oncological diseases or suffered myocardial infarction/stroke to the brain 60 days or less before) were not admitted to the tests. The distribution of patients among groups was governed by a random number generator. The tests were carried out by the following protocol. Each patient took 100 mg of the preparation twice per day (in the morning and after lunch) during 3 months—against the background of a standard therapy administered by a physician. […] All the samples and placebo were encoded before sending into the clinic, so none of those involved into the tests (patients, physicians, medical personnel and the manager of tests) was aware of the nature of samples.
The functional class of patients was determined several times: at the beginning of tests (before the formation of test groups) and after 30, 60 and 90 days of treatment with the test samples. The estimation was performed on the basis of the activity scale (Table 7).

white rat females = conditions: in vivo; for Total died: 14 days
Wistar rat males = conditions: for adaptogenic properties, conclusion in words: 6-hour immobilization stress, Wistar rats; for Eosinophils, 6 h after / Lymphocytes, 6 h after / Number of leukocytes in 1 μl of blood, 6 h after / Segmentated cells, 6 h after: 6 h after immobilization; for Eosinophils, 6 h after / Lymphocytes, 6 h after / Number of leukocytes in 1 μl of blood, 6 h after / Segmentated cells, 6 h after / Eosinophils, before / Lymphocytes, before / Number of leukocytes in 1 μl of blood, before / Segmentated cells, before: 1.5 ml of 1% succinic acid perorally 10 min prior; for Eosinophils, before / Lymphocytes, before / Number of leukocytes in 1 μl of blood, before / Segmentated cells, before: at the moment of immobilization
Method: Examples, illustrating the method invented, are presented below. […] SA is tested on rats endured an immobilization stress; the parameter tested is lymphocytic composition of blood, which is determined before and after stress in a blood smear taken from the caudal vein. […] A detailed description of the testing technique is given in Example 13.
The animals were fixed while lying flat on their back, with their legs secured. […] Blood was taken from the caudal vein: 10 μl for counting blood corpuscles and 20 μl for preparing a smear with its subsequent staining by Romanovsky-Giemsa).
First group: 10 min prior immobilization, the animals were injected (perorally, with the help of a stomach pump) with 1.5 ml of 1% starch solution. […] Blood was taken from the caudal vein at the moment of immobilization and 6 hours later, and stained blood smears were prepared to calculate the leukogram.

[4] = system: erythroid cells isolated from the bone marrow of laboratory mice males; conditions: feed with succinic acid 20 mg/kg body wt., not irradiated, norm 5.0±1.0
Method: The test for genotoxicity was performed on young laboratory mice males (18-20 g; 6 animals in each group). […] The control animals were given water.

Compound: O=C(O)CCC(=O)O [Example 3, succinic acid, reference compound]
- biological activity, overall conclusion in words [1]: higher activity but it is far from that of “natural” SA
- radioprotective effect, conclusion in words [2]: close to the dividing line
- Number of micronuclei per 2000 cells (radioprotective properties) [2]: 16.0 ± 1.6
- patients of functional class I, day 30 [3]: 9
- patients of functional class II, day 30 [3]: 7
- patients of functional class III, day 30 [3]: 4
- patients of functional class IV, day 30 [3]: 0
- patients of functional class I, day 60 [3]: 9
- patients of functional class II, day 60 [3]: 7
- patients of functional class III, day 60 [3]: 4
- patients of functional class IV, day 60 [3]: 0
- patients of functional class I, day 90 [3]: 10
- patients of functional class II, day 90 [3]: 7
- patients of functional class III, day 90 [3]: 3
- patients of functional class IV, day 90 [3]: 0
- cardiotonic properties / dynamics of functional class, conclusion in words [3]: more expressed
- patients of functional class I, day 0 [3]: 8
- patients of functional class II, day 0 [3]: 7
- patients of functional class III, day 0 [3]: 5
- patients of functional class IV, day 0 [3]: 0
- died, 14 day (white rat females; female, 5000 mg/kg): 2
- Total died (white rat females; female, 5000 mg/kg): 2
- adaptogenic properties, conclusion in words (Wistar rat males): at the “borderline”
- Eosinophils, 6 h after (Wistar rat males; listed as Ex. 3): 0.5 ± 4%
- Lymphocytes, 6 h after (Wistar rat males; listed as Ex. 3): 73 ± 5%
- Number of leukocytes in 1 μl of blood, 6 h after (Wistar rat males; listed as Ex. 3): 7100
- Segmentated cells, 6 h after (Wistar rat males; listed as Ex. 3): 26 ± 3%
- Eosinophils, before (Wistar rat males; listed as Ex. 3): 2 ± 6%
- Lymphocytes, before (Wistar rat males; listed as Ex. 3): 76 ± 6%
- Number of leukocytes in 1 μl of blood, before (Wistar rat males; listed as Ex. 3): 5700
- Segmentated cells, before (Wistar rat males; listed as Ex. 3): 22 ± 3%
- Number of micronuclei per 2000 cells (genotoxicity) [4]: 5.0 ± 0.6

Compound: O=C(O)CCC(=O)O [Example 5, succinic acid]
- Number of micronuclei per 2000 cells (radioprotective properties) [2]: 12.0 ± 1.2
- patients of functional class I, day 30 [3]: 8
- patients of functional class II, day 30 [3]: 7
- patients of functional class III, day 30 [3]: 5
- patients of functional class IV, day 30 [3]: 0
- patients of functional class I, day 60 [3]: 9
- patients of functional class II, day 60 [3]: 7
- patients of functional class III, day 60 [3]: 4
- patients of functional class IV, day 60 [3]: 0
- patients of functional class I, day 90 [3]: 14
- patients of functional class II, day 90 [3]: 5
- patients of functional class III, day 90 [3]: 1
- patients of functional class IV, day 90 [3]: 0
- patients of functional class I, day 0 [3]: 8
- patients of functional class II, day 0 [3]: 7
- patients of functional class III, day 0 [3]: 5
- patients of functional class IV, day 0 [3]: 0
- died, 13 day (white rat females; female, 5000 mg/kg, 13 day): 2
- died, 14 day (white rat females; female, 5000 mg/kg): 1
- Total died (white rat females; female, 5000 mg/kg): 3
- Eosinophils, 6 h after (Wistar rat males; listed as Ex. 5): 1.5 ± 8%
- Lymphocytes, 6 h after (Wistar rat males; listed as Ex. 5): 75 ± 4%
- Number of leukocytes in 1 μl of blood, 6 h after (Wistar rat males; listed as Ex. 5): 7200
- Segmentated cells, 6 h after (Wistar rat males; listed as Ex. 5): 24 ± 3%
- Eosinophils, before (Wistar rat males; listed as Ex. 5): 2 ± 6%
- Lymphocytes, before (Wistar rat males; listed as Ex. 5): 76 ± 5%
- Number of leukocytes in 1 μl of blood, before (Wistar rat males; listed as Ex. 5): 6000
- Segmentated cells, before (Wistar rat males; listed as Ex. 5): 22 ± 4%
- Number of micronuclei per 2000 cells (genotoxicity) [4]: 5.0 ± 1.0

Compound: O=C(O)CCC(=O)O [Example 2, succinic acid, reference compound]
- biological activity, overall conclusion in words [1]: do not possess high biological activity
- radioprotective effect, conclusion in words [2]: no evident radioprotective effect
- Number of micronuclei per 2000 cells (radioprotective properties) [2]: 22.5 ± 1.0
- patients of functional class I, day 30 [3]: 8
- patients of functional class II, day 30 [3]: 7
- patients of functional class III, day 30 [3]: 5
- patients of functional class IV, day 30 [3]: 0
- patients of functional class I, day 60 [3]: 8
- patients of functional class II, day 60 [3]: 8
- patients of functional class III, day 60 [3]: 4
- patients of functional class IV, day 60 [3]: 0
- patients of functional class I, day 90 [3]: 8
- patients of functional class II, day 90 [3]: 8
- patients of functional class III, day 90 [3]: 4
- patients of functional class IV, day 90 [3]: 0
- cardiotonic properties / dynamics of functional class, conclusion in words [3]: slight positive dynamics
- patients of functional class I, day 0 [3]: 8
- patients of functional class II, day 0 [3]: 7
- patients of functional class III, day 0 [3]: 5
- patients of functional class IV, day 0 [3]: 0
- Total died (white rat females; female, 5000 mg/kg): 0
- animals died, extra test with doubled dose (white rat females; 10000 mg/kg): Not a single animal died
- adaptogenic properties, conclusion in words (Wistar rat males): slight adaptogenic properties
- Eosinophils, 6 h after (Wistar rat males; listed as Ex. 2): 0%
- Lymphocytes, 6 h after (Wistar rat males; listed as Ex. 2): 70 ± 5%
- Number of leukocytes in 1 μl of blood, 6 h after (Wistar rat males; listed as Ex. 2): 7700
- Segmentated cells, 6 h after (Wistar rat males; listed as Ex. 2): 30 ± 3%
- Eosinophils, before (Wistar rat males; listed as Ex. 2): 2 ± 2%
- Lymphocytes, before (Wistar rat males; listed as Ex. 2): 76 ± 4%
- Number of leukocytes in 1 μl of blood, before (Wistar rat males; listed as Ex. 2): 5700
- Segmentated cells, before (Wistar rat males; listed as Ex. 2): 21 ± 4%
- Number of micronuclei per 2000 cells (genotoxicity) [4]: 5.5 ± 1.0
